In patent US11013717B1, “Methods and compositions for treating cancer using SERCA pump inhibitors” (priority 2018, dated 2021):

Tested on: CD8+ T-cells isolated from human PBMCs
Test: Activation of anti-CD3/anti-CD28 stimulated CD8+ T-cells treated with SERCA inhibitors, cytokine release (IFNγ, TNFα) by intracellular staining flow cytometry
Type: cell-based
Settings: for Fold Change % IFNγ+ Cells (Normalized to Bead Stimulated Only): overnight, anti-CD3/anti-CD28 bead stimulated human CD8+ T-cells; for T cell activation / interferon gamma (IFNγ) production / secretion by CD8+ T cells: human CD8+ T-cells stimulated with anti-CD3/anti-CD28 beads, overnight incubation, thapsigargin 1.5 μM, cyclopiazonic acid 3 μM, NS-1619 30-100 μM; for T cell activation: activation measured by cytokine release
Description: CD8+ T-cells were isolated from human PBMCs using negative magnetic bead selection (Stemcell Technologies). Cells stimulated with anti-CD3/anti-CD28 beads (Life Technologies) and were treated with different SERCA inhibitors: thapsigargin (1.5 μM), cyclopiazonic acid (3 μM), and NS-1619 (30-100 μM). All incubations were done overnight. Subsequent activation was measured by cytokine release using intracellular staining flow cytometry of IFNγ and TNFα, using fluorescently labeled antibodies (Biolegend).

C/C=C(/C)C(=O)O[C@H]1C(C)=C2[C@H]([C@@H]1OC(=O)CCCCCCC)[C@@](C)(OC(C)=O)C[C@H](OC(=O)CCC)[C@@]1(O)[C@H]2OC(=O)[C@@]1(C)O [thapsigargin]
Fold Change % IFNγ+ Cells (Normalized to Bead Stimulated Only) (1.5 μM): 2.08 fold | T cell activation: led to T cell activation | interferon gamma (IFNγ) production / secretion by CD8+ T cells: increased

O=c1[nH]c2cc(C(F)(F)F)ccc2n1-c1cc(C(F)(F)F)ccc1O [NS-1619]
Fold Change % IFNγ+ Cells (Normalized to Bead Stimulated Only) (30 μM): 1.1 fold | Fold Change % IFNγ+ Cells (Normalized to Bead Stimulated Only) (100 μM): 2.68 fold | T cell activation: led to T cell activation | interferon gamma (IFNγ) production / secretion by CD8+ T cells: increased

CC(=O)C1=C(O)[C@@H]2[C@H]3c4c[nH]c5cccc(c45)C[C@H]3C(C)(C)N2C1=O [cyclopiazonic acid]
Fold Change % IFNγ+ Cells (Normalized to Bead Stimulated Only) (3 μM): 2.38 fold
